Data reported in patent publication US12129265B2, “Therapeutic agents and uses thereof” (Ankh Life Sciences Limited, priority 2020, dated 2024).
≈ marks a conversion by molar mass, not a printed value. Read-outs that look alike come from different tables or passages of the source. Values belong to the compound of their own block, whether it stands above or below them.

Key:
[1] = tested on: S2-007 cells; test: Cell colony formation assay, Example 16; type: cell-based, human; conditions: 4 μg and 6 μg, 24, 48, and 72 hours, FIG. 123
Protocol: (§1) In this example, the 560 and 562 compounds of Examples 12 and 14, respectively, were tested using cell colony formation assays. 500 viable S2-007 and MiaCaPa-2 cells were plated in six-well dishes and allowed to grow for 24 hours. The cells were then incubated in the presence or absence of the 560 and 562 compounds for 72 hours. The compound-containing media were then removed, and the cells were washed in PBS and incubated for an additional 10 days in complete media. The resultant colonies were then washed in PBS and fixed using 10% formalin for 10 minutes at room temperature, followed by washing with PBS and staining with Crystal Violet. The colonies of the control and compound-supplemented assays were then counted and compared.

[2] = tested on: MiaPaCa-2 cells; test: Cell colony formation assay, Example 16; type: cell-based, human
Protocol: as §1

[3] = tested on: Jeko-1 Bortezomib resistant cells; test: CellTiter-Glo in vitro cell proliferation assay, Example 8; type: cell-based; conditions: Homo sapiens, Mantle Cell Lymphoma, 72 hours
Outline: (§2)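 In this 3-day viability format, cells were drugged 24 h after plating across 0.0075–100 μM. CellTiter-Glo, mixed 1:1 with sterile water, was applied at the end and luminescence read after 60 min at room temperature.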

[4] = tested on: Jeko-1 Parental cells; test: as above; type: cell-based; conditions: Homo sapiens, Mantle Cell Lymphoma, 72 hours
Outline: as §2

[5] = tested on: Jeko-1 Lenalidomide resistant cells; test: as above; type: cell-based; conditions: Homo sapiens, Mantle Cell Lymphoma, 72 hours
Outline: as §2

[6] = tested on: FaDu cells; test: as above; type: cell-based, Human; conditions: Homo sapiens
Outline: as §2

[7] = tested on: MIA PaCa-2 cells; test: as above; type: cell-based, Human; conditions: Homo sapiens, MIA PaCa-2, Pancreatic
Outline: as §2

[8] = tested on: DOHH-2 cells; test: as above; type: cell-based, Human; conditions: Homo sapiens, DOHH-2, Diffuse Large B-Cell Lymphoma
Outline: as §2

[9] = tested on: A2780 cells; test: as above; type: cell-based, Human; conditions: Homo sapiens, A2780, Ovarian
Outline: as §2

[10] = tested on: KMS-34 cells; test: as above; type: cell-based, Human
Outline: as §2

[11] = tested on: JIM1 cells; test: as above; type: cell-based, Human
Outline: as §2

[12] = tested on: A2780CP cells; test: as above; type: cell-based, Human; conditions: Homo sapiens, A2780C/P
Outline: as §2

[13] = Solubility observation on acid addition; type: physicochemical; conditions: addition of an acid such as hydrochloric acid to reduce the pH of the product
Protocol: The 518B562 compound was prepared by mixing together particulate harmaline and vanillin at a weight ratio of about 2:1 (vanillin:harmaline), followed by adding ethanol to a final concentration of the reactions of from about 10-100 mg/mL. This mixture is then allowed to sit for approximately 3 days at 50° C. A bluish solid forms, which is filtered and washed with methanol, and recovered.

[14] = tested on: S2-007 pancreatic cancer cells; test: Proliferation assay, Example 10; type: cell-based, human
Protocol: (§3) In this Example, pancreatic cancer cells (S2-007 and Mia-PaCa2) were treated with the previously described compound 518B562 at different times and concentrations, followed by generation of proliferation assays using the techniques described above. […] After 72 hours of treatment, the IC50 values of the compound against S2-007 and Mia-PaCa2 cells was determined as 3 μg/mL and 5 μg/mL, respectively.

[15] = tested on: Mia-PaCa2 pancreatic cancer cells; test: Proliferation assay, Example 10; type: cell-based, human
Protocol: as §3

[16] = tested on: gene expression in S2-007 human pancreatic cancer cells; test: RNA-Seq clustergram/heat map of cancer stem cell markers, Example 11; type: cell-based; conditions: 5 micro-g/mL
Protocol: In this Example, a clustergram/heat map of RNA sequences for cancer stem cell (CSC) markers was performed before and after treatment of S2-007 human pancreatic cancer cells with 518B562. This experiment was conducted using a Whole Transcriptome Shotgun Sequence (WTSS), followed by bioinformatics data analysis of CSC markers. An RNA-Seq/heat map was generated to obtain a genome-wide gene expression profile of the pancreatic cancer cells.
One sample of the pancreatic cancer cell line was untreated, while an identical sample was treated with 5 micro-g/mL of 518B562. Comparative RNA sequences were performed on the samples using an Illumina HISeq 2500 sequencer at a 100 bp single read resolution. The sequence readings were mapped to the human genome (assembly GRCh38.re177) using the STAR software (Dobin et al. 2012). Transcript abundance estimates were generated using the Cufflinks software (Trapnell et al. 2010) and differential gene expression estimates were calculated using the Cuffdiff software (Trapnell et al. 2013). RNA-Seq generated around […], of which between 97.2% and 98.3% of the reads mapped to the reference genome.

[17] = Squamous, 72 hours, read-out: Mean IC50
[18] = KMS-34, Human Myeloma, 72 hours, read-out: Mean IC50
[19] = JIM1, Human Myeloma, 72 hours, read-out: Mean IC50
[20] = Ovarian, 72 hours, read-out: Mean IC50
[21] = doses of 1-25 μg/mL, time-dependent, 24-72 hours

IC50 ([7]; 72 hours, read-out: Mean IC50): 3.38 µM
IC50 ([9]; 72 hours, read-out: Mean IC50): 2.03 µM
IC50 [12, 20]: 4.4 µM
Compound: COc1ccc2c3c([nH]c2c1)C(CC(CC1=NCCc2c1[nH]c1cc(OC)ccc21)c1ccccc1)=NCC3 [compound 560]
colony formation [1]: significantly disrupted colony formation, particularly at the 6 μg level of use
colony formation ([2]; 3 μg and 5 μg, 24, 48, and 72 hours, FIG. 124): significantly disrupted colony formation at both levels of use
IC50 [3]: 4.08 µM
IC50 [4]: 4.7 µM
IC50 [5]: 5.07 µM
IC50 [6, 17]: 2.05 µM
IC50 ([8]; 72 hours, read-out: Mean IC50): 6.39 µM
IC50 [10, 18]: 6.67 µM
IC50 [11, 19]: 5.17 µM

solubility [13]: increased the solubility thereof
IC50 ([14]; Homo sapiens, Pancreatic cancer cell, after 72 hours of treatment): 3 µg/mL (≈ 5.33 µM)
IC50 ([15]; Homo sapiens, MIA PaCa-2, after 72 hours of treatment): 5 µg/mL (≈ 8.89 µM)
IC50 ([7]; 72 hours, read-out: Mean IC50): 1.81 µM
IC50 ([9]; 72 hours, read-out: Mean IC50): 1.14 µM
IC50 [12, 20]: 2.28 µM
Compound: COc1ccc2c3c([nH]c2c1)C(CC(CC1=NCCc2c1[nH]c1cc(OC)ccc21)c1ccc(O)c(OC)c1)=NCC3 [compound 562]
colony formation ([2]; 3 μg, 7 μg, 10 μg, and 12 μg, 24, 48, and 72 hours, FIG. 127): significantly disrupted colony formation, particularly at the higher levels of use
inhibition of proliferation [14, 21]: significantly inhibited the proliferation
inhibition of proliferation [15, 21]: significantly inhibited the proliferation
IC50 [3]: 4.81 µM
IC50 [4]: 4.41 µM
IC50 [5]: 6.19 µM
angiogenesis markers [OXTR, SYCP2, CRHR1, SPEG] [16]: down-regulated
anti-apoptotic markers [TUG1, FABP1, PI3, DOKS] [16]: down-regulated
anti-proliferative markers [NRP1, ATF2A, CYP1b1, ALPP, DEPTOR, MT1F] [16]: up-regulated
apoptotic markers [ICAM5, WNK4, ALPP, LTRC26, SHBG, MT1X] [16]: up-regulated
proliferation signaling markers [FOXj1, SPP1, C3] [16]: down-regulated
IC50 [6, 17]: 1.98 µM
IC50 ([8]; 72 hours, read-out: Mean IC50): 2.42 µM
IC50 [10, 18]: 5.45 µM
IC50 [11, 19]: 3.95 µM

IC50 ([7]; Example 24, read-out: Mean): 3.49 µg/mL
IC50 ([7]; Example 24, read-out: Trial A): 3.81 µg/mL
IC50 ([7]; Example 24, read-out: Trial B): 3.17 µg/mL
IC50 ([9]; Example 24, read-out: Mean): 2.58 µg/mL
IC50 ([9]; Example 24, read-out: Trial A): 2.67 µg/mL
IC50 ([9]; Example 24, read-out: Trial B): 2.49 µg/mL
IC50 ([12]; Example 24, Ovarian, read-out: Mean): 3.27 µg/mL
IC50 ([12]; Example 24, Ovarian, read-out: Trial A): 3.57 µg/mL
IC50 ([12]; Example 24, Ovarian, read-out: Trial B): 2.96 µg/mL
Compound: COc1ccc2c3c([nH]c2c1)C(CC(CC1=NCCc2c1[nH]c1cc(OC)ccc21)c1cccc(Oc2ccccc2)c1)=NCC3 [compound 594, diharmaline 3-phenoxybenzaldehyde]
IC50 ([6]; Example 24, Squamous, read-out: Mean): 4.62 µg/mL
IC50 ([6]; Example 24, Squamous, read-out: Trial A): 3.78 µg/mL
IC50 ([6]; Example 24, Squamous, read-out: Trial B): 5.45 µg/mL
IC50 ([8]; Example 24, read-out: Mean): 2.64 µg/mL
IC50 ([8]; Example 24, read-out: Trial A): 2.58 µg/mL
IC50 ([8]; Example 24, read-out: Trial B): 2.71 µg/mL
IC50 ([10]; Example 24, KMS-34, human myeloma, read-out: Mean): 3.89 µg/mL
IC50 ([10]; Example 24, KMS-34, human myeloma, read-out: Trial A): 4.23 µg/mL
IC50 ([10]; Example 24, KMS-34, human myeloma, read-out: Trial B): 3.55 µg/mL
IC50 ([11]; Example 24, JIM1, human myeloma, read-out: Mean): 7.67 µg/mL
IC50 ([11]; Example 24, JIM1, human myeloma, read-out: Trial A): 7.41 µg/mL
IC50 ([11]; Example 24, JIM1, human myeloma, read-out: Trial B): 7.92 µg/mL
